For orientation: Emax means the size of the effect at its maximum, as opposed to the concentration needed. Usually EC50 stands for the concentration that produces a half-maximal response. One may read the Ki as a dissociation constant, usually derived from enzyme kinetics or from competition with a known ligand.

Structures are written as SMILES.

These results are taken from patent publication US20250109139A1, “TRICYCLIC COMPOUND, AND PREPARATION METHOD THEREFOR AND USE THEREOF” (SHANGHAITECH UNIVERSITY, priority 2022, published 2025).

Assay [1] addresses T1, dopamine D2 receptors (Homo sapiens (Human), UniProt P14416). In words: Dopamine D2 receptor Gαi1 BRET (G protein trimer dissociation). Particulars: for Emax: relative to endogenous ligand dopamine, read-out: Gαi1 BRET Emax % ± SEM; for EC50: unit printed only in Cariprazine cell, read-out: Gαi1 BRET EC50. The format is cell-based. The gist of the method:
(§1)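 G-protein assay: cells co-transfected with D2 receptor, Gαi1-Rluc, Gβ3 and Gγ9-GFP (1 μg each); β-arrestin2 assay: D2-Rluc, GRK2 and GFP2-β-arrestin2 co-transfected. Cells were reseeded after one day and tested on day three. Drug dilution series were added in duplicate with coelenterazine 400a (5 μM final), and the BRET signal was read.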

Assay [2] has as its target T2, 5-hydroxytryptamine 1A (5-HT1A) receptors (Homo sapiens (Human), UniProt P08908). In words: 5-HT1A receptor radioligand competition binding assay ([3H]-LSD). As to conditions: 293T membranes, read-out: Affinity Ki. As for the experimental part: The affinity of the compounds of the present disclosure for 5-hydroxytryptamine 1A (5-HT1A) receptors was determined by a radioligand competition binding assay.
In the first step, a cell membrane component containing specific 5-HT1A receptors was prepared. […] A vacuum pump was used to suck off the culture medium, 3 mL of lysis buffer was added to each culture dish, and the cells were placed in a 4° C. cold room for 10 minutes. After the cells were detached, the cells were transferred to a 15 mL centrifuge tube and centrifuged at 1500 rpm for 5 minutes at 4° C., and the supernatant was discarded. The cell pellet was transferred to a tissue homogenizer, and 3 mL of lysis buffer was added and fully ground until the cells were broken. Then, cell suspension was equally aliquoted into several EP tubes, centrifuged at 12000 rpm for 5 minutes at 4° C., and the supernatant was discarded. The precipitate was the cell membrane component containing the 5-HT1A receptors.
First, a standard binding buffer was added to the cell membrane component containing the 5-HT1A receptors, and the cell membrane was disrupted and resuspended with an electric tissue homogenizer. 30 μL of membrane protein suspension was added to each well of a 96-well plate. Then, 30 μL of different drugs were added to the 96-well plate sequentially from bottom to top to ensure that the final drug concentrations were 10^−5 M, 10^−6 M, 10^−7 M, 10^−8 M, 10^−9 M, and 0 M, with two replicates per treatment. Next, 30 μL of [^3H]-LSD was added to each well of the 96-well plate. The plate was incubated at room temperature in the dark for 2 hours. Detection was conducted. The machine readout value reflected the amount of [^3H]-LSD bound on the membrane, and after further data processing, the binding affinity Ki values of different compounds for the 5-HT1A receptors were obtained.
On the technique in general: Loss of bound radioactivity is the signal in a displacement assay; it reports binding, not function.

Assay [3] concerns the target T1, dopamine D2 receptors. In words: Dopamine D2 receptor β-arrestin2 BRET (recruitment). The format is cell-based. Particulars: for Emax: relative to endogenous ligand dopamine, read-out: β-arrestin2 BRET Emax % ± SEM; for EC50: unit printed only in Cariprazine cell, read-out: β-arrestin2 BRET EC50. The gist of the method:
as §1
On the technique in general: BRET reads energy transfer from a luciferase to a nearby fluorophore.

The target in assay [4] is T2, 5-hydroxytryptamine 1A (5-HT1A) receptors. As to the kind of experiment: 5-HT1A receptor Gαi1 BRET (G protein trimer dissociation). The format is cell-based. Particulars: relative to endogenous ligand 5-hydroxytryptamine.
Assay [5] shares this target. As to the kind of experiment: 5-HT1A receptor β-arrestin2 BRET (recruitment). The format is cell-based. Particulars: relative to endogenous ligand 5-hydroxytryptamine. As for the experimental part:
At the same time, in order to examine the downstream β-arrestin2 signaling pathway mediated by 5-HT1A receptors, on the first day, a 6 cm culture dish was used for transfection with 500 ng of 5-HT1A receptors containing C-terminal seaweed luciferase (5HT1AR-Rluc), 500 ng of G protein-coupled receptor kinase 2 (GRK2), 2500 ng of β-arrestin2 containing N-terminal green fluorescent protein (GFP2-ARRB2), and 14 μL of PEI. The next day, the confluent cells of a 6 cm culture dish were digested and reseeded into a 96-well plate with 100 μL of culture medium added to each well. On the third day, the drugs were added for test. The 96-well plate was taken out from the cell incubator to decant the culture medium, 40 µL of the substrate coelenterazine 400a (final concentration of 5 μM) was added to each well, and then 20 μL of different drugs were added sequentially from left to right to ensure that the final concentration of the drug decreased gradually from bottom to top, with two replicates per treatment. Finally, the prepared samples were loaded on machine for test. The machine readout value reflected the recruitment of β-arrestin2 to the membrane or the dissociation of G protein trimer. The former indicated the degree of activation of the β-arrestin2 signaling pathway downstream of the 5-HT1 serotonin 1A receptors, and the latter indicated the degree of activation of the G protein signaling pathway downstream of the serotonin 1A receptors.

The target in assay [6] is T1, dopamine D2 receptors. In words: Dopamine D2 receptor radioligand competition binding assay ([3H]-Methylspiperone). As to conditions: [3H]-Methylspiperone 0.3 to 0.5 nM, 293T membranes; read-out: Affinity Ki. The gist of the method:
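Membranes from cells transfected with human D2 receptor, PEI-mediated; competition with [3H]-methylspiperone for 2 h at room temperature in the dark.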

T2 sequence (P08908 whole entry): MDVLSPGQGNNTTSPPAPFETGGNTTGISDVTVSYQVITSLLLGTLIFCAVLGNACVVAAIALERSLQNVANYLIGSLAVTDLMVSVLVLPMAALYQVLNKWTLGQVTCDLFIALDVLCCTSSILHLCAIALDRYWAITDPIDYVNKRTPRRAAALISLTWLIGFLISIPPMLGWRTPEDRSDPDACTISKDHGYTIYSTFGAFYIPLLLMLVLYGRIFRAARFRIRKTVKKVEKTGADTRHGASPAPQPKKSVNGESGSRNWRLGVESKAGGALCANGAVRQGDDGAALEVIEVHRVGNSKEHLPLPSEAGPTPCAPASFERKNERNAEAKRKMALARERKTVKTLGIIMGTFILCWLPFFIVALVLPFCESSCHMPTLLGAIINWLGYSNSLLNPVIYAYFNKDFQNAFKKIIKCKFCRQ
T1 sequence (P14416 whole entry): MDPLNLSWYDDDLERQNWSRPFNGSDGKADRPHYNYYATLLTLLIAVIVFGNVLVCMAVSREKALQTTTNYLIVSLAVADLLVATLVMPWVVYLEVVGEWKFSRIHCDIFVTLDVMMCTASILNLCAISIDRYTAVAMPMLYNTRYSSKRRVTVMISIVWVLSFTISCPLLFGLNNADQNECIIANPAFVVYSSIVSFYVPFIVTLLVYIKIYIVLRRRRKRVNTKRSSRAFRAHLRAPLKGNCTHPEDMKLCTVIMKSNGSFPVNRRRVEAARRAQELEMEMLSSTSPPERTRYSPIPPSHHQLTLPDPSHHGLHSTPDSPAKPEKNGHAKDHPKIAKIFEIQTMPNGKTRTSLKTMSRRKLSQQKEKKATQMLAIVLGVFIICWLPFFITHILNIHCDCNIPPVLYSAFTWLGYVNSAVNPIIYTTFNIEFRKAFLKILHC

With `CCOc1cccc2c3c(oc12)CN(CCNC(=O)C1CCCCCC1)CC3` [I-A32, N-(2-(8-ethoxy-3,4-dihydrobenzofuro[2,3-c]pyridin-2(1H)-yl)ethyl)cycloheptanecarboxamide], the maximal response (Emax) at dopamine D2 receptors [1] worked out at 21%; on dopamine D2 receptors [3] it was 12%; in assay [4], 102%; in assay [5] it was 31.6%. In addition, the EC50 at dopamine D2 receptors [1] is 12.9 nM; on dopamine D2 receptors [3], 233 nM. Moreover, the Ki in assay [2] was found to be 2.55 nM.
As for `COc1cccc2c3c(oc12)CN(CCNC(=O)C1CCC(F)(F)CC1)CC3` [I-A15, 4,4-difluoro-N-(2-(8-methoxy-3,4-dihydrobenzofuro[2,3-c]pyridin-2(1H)-yl)ethyl)cyclohexane-1-carboxamide], the Ki at dopamine D2 receptors [6] was 272 nM; in assay [2], 5.43 nM. In addition, the values for the maximal effect (Emax) in assay [4] and in assay [5] were 123% and 92%, respectively.
Regarding `COc1cccc2c3c(oc12)CN(CCCCn1ncc(=O)n(C)c1=O)CC3` [I-A22, 2-(4-(8-methoxy-3,4-dihydrobenzofuro[2,3-c]pyridin-2(1H)-yl)butyl)-4-methyl-1,2,4-triazine-3,5(2H,4H)-dione], the Emax at dopamine D2 receptors [1] came out at 79%; at dopamine D2 receptors [3] it was 89%; in assay [4], 59.5%; in assay [5], 49.6%. Further, the EC50 on dopamine D2 receptors [1] came to 56 nM; on dopamine D2 receptors [3] it was 86.4 nM. For the same compound, the Ki in assay [2] worked out at 0.073 nM.
